Results taken from patent US8410151B2, “Aminomethyl benzene derivatives” (Actelion Pharmaceuticals Ltd, priority 2009, dated 2013).

target: recombinant human S1P1 receptor (Homo sapiens, UniProt P21453); assay: GTPγS assay to determine EC50 values; type: biochemical; conditions: 35S-GTPγS binding, CHO membranes, human S1P1
Procedure: GTPγS binding assays are performed in 96 well microtiter plates (Nunc, 442587) in a final volume of 200 μl, using membrane preparations of CHO cells expressing recombinant human S1P1 receptor. Assay conditions are 20 mM Hepes (Fluka, 54461), 100 mM NaCl (Fluka, 71378), 5 mM MgCl2 (Fluka, 63064), 0.1% BSA (Calbiochem, 126609), 1 μM GDP (Sigma, G-7127), 2.5% DMSO (Fluka, 41644), 50 pM ^355-GTPγS (Amersham Biosciences, SJ1320). The pH is 7.4. Test compounds are dissolved and diluted in 100% DMSO and pre-incubated at room temperature for 30 min in 150 μl of the above assay buffer, in the absence of ^355-GTPγS. After addition of 50 μl of ^355-GTPγS, the assay is incubated for 1 h at rt. The assay is terminated by transfer of the reaction mixture to a Multiscreen plate (Millipore, MAHFC1H60) using a cell harvester from Packard Biosciences, and the plates are washed with ice-cold 10 mM Na2HPO4/NaH2PO4 (70%/30%), dried, sealed at the bottom and, after addition of 25 μl MicroScint20 (Packard Biosciences, order #6013621), sealed on the top. Membrane-bound ^35S-GTPγS is measured with a TopCount from Packard Biosciences.
EC50 is the concentration of agonist inducing 50% of the maximal specific ^35S-GTPγS binding. Specific binding is determined by subtracting non-specific binding from maximal binding. Maximal binding is the amount of cpm bound to the Multiscreen plate in the presence of 10 μM of S1P. Non-specific binding is the amount of binding in the absence of an agonist in the assay.

Sequence of recombinant human S1P1 receptor (P21453 whole entry): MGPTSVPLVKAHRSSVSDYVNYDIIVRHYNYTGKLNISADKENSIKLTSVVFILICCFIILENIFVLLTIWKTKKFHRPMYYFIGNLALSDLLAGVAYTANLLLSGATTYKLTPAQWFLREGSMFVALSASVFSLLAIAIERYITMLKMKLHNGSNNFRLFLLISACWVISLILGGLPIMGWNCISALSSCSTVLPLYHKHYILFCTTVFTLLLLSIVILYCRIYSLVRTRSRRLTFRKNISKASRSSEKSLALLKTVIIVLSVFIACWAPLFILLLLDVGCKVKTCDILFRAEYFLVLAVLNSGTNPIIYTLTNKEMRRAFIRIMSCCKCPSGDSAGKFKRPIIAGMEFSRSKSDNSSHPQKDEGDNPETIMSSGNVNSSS

Row | Compound | EC50 [nM]
1 | CNCc1cccc(-c2nc(-c3cc(C)c(OCC(O)CNC(=O)CO)c(C)c3)no2)c1 (racemic) [Example 1] | > 10000

same assay, conditions: 35S-GTPγS binding, membrane preparations of CHO cells expressing recombinant human S1P1 receptor

Row | Compound | EC50 [nM]
2 | CCc1cc(-c2noc(-c3cc(C)cc(CN(C)CC(C)C)c3)n2)cc(C)c1OC[C@@H](O)CNC(=O)CO [Example 19, N—{(S)-3-[2-ethyl-4-(5-{3-[(isobutyl-methyl-amino)-methyl]-5-methyl-phenyl}-[1,2,4]oxadiazol-3-yl)-6-methyl-phenoxy]-2-hydroxy-propyl}-2-hydroxy-acetamide] | 2.2
3 | CCCCN(CC)Cc1cc(C)cc(-c2nc(-c3cc(C)c(OC[C@@H](O)CNC(=O)CO)c(CC)c3)no2)c1 [Example 21, N—{(S)-3-[4-(5-{3-[(butyl-ethyl-amino)-methyl]-5-methyl-phenyl}-[1,2,4]oxadiazol-3-yl)-2-ethyl-6-methyl-phenoxy]-2-hydroxy-propyl}-2-hydroxy-acetamide] | 5.6
4 | CCCCN(C)Cc1ccc(-c2nc(-c3cc(C)c(OC[C@@H](O)CNC(=O)CO)c(CC)c3)no2)cc1C [Example 42, N—{(S)-3-[4-(5-{4-[(butyl-methyl-amino)-methyl]-3-methyl-phenyl}-[1,2,4]oxadiazol-3-yl)-2-ethyl-6-methyl-phenoxy]-2-hydroxy-propyl}-2-hydroxy-acetamide] | 5.8
5 | CCc1cc(CN(C)C)cc(-c2nc(-c3cc(C)c(OC[C@@H](O)CNC(=O)CO)c(CC)c3)no2)c1 [Example 49, N—((S)-3-{4-[5-(3-dimethylaminomethyl-5-ethyl-phenyl)-[1,2,4]oxadiazol-3-yl]-2-ethyl-6-methyl-phenoxy}-2-hydroxy-propyl)-2-hydroxy-acetamide] | 3.7
6 | CCc1cc(CN(C)CC)cc(-c2nc(-c3cc(C)c(OC[C@@H](O)CNC(=O)CO)c(CC)c3)no2)c1 [Example 50, N—{(S)-3-[2-ethyl-4-(5-{3-ethyl-5-[(ethyl-methyl-amino)-methyl]-phenyl}-[1,2,4]oxadiazol-3-yl)-6-methyl-phenoxy]-2-hydroxy-propyl}-2-hydroxy-acetamide] | 5.3
7 | CCCN(C)Cc1cc(CC)cc(-c2nc(-c3cc(C)c(OC[C@@H](O)CNC(=O)CO)c(CC)c3)no2)c1 [Example 51, N—{(S)-3-[2-ethyl-4-(5-{3-ethyl-5-[(methyl-propyl-amino)-methyl]-phenyl}-[1,2,4]oxadiazol-3-yl)-6-methyl-phenoxy]-2-hydroxy-propyl}-2-hydroxy-acetamide] | 2.4
8 | CCCCN(C)Cc1cc(CC)cc(-c2nc(-c3cc(C)c(OC[C@@H](O)CNC(=O)CO)c(CC)c3)no2)c1 [Example 52, N—{(S)-3-[4-(5-{3-[(butyl-methyl-amino)-methyl]-5-ethyl-phenyl}-[1,2,4]oxadiazol-3-yl)-2-ethyl-6-methyl-phenoxy]-2-hydroxy-propyl}-2-hydroxy-acetamide] | 2
9 | CCCc1cc(CNCC(C)C)cc(-c2nc(-c3cc(C)c(OC[C@@H](O)CNC(=O)CO)c(CC)c3)no2)c1 [Example 58, N—[(S)-3-(2-ethyl-4-{5-[3-(isobutylamino-methyl)-5-propyl-phenyl]-[1,2,4]oxadiazol-3-yl}-6-methyl-phenoxy)-2-hydroxy-propyl]-2-hydroxy-acetamide] | 8.4
10 | CCCc1cc(CN(C)CCC)cc(-c2nc(-c3cc(C)c(OC[C@@H](O)CNC(=O)CO)c(CC)c3)no2)c1 [Example 61, N—{(S)-3-[2-ethyl-6-methyl-4-(5-{3-[(methyl-propyl-amino)-methyl]-5-propyl-phenyl}-[1,2,4]oxadiazol-3-yl)-phenoxy]-2-hydroxy-propyl}-2-hydroxy-acetamide] | 3.6
11 | CCCCN(C)Cc1cc(CCC)cc(-c2nc(-c3cc(C)c(OC[C@@H](O)CNC(=O)CO)c(CC)c3)no2)c1 [Example 62, N—{(S)-3-[4-(5-{3-[(butyl-methyl-amino)-methyl]-5-propyl-phenyl}-[1,2,4]oxadiazol-3-yl)-2-ethyl-6-methyl-phenoxy]-2-hydroxy-propyl}-2-hydroxy-acetamide] | 3.1
12 | CCCN(C)Cc1cc(-c2nc(-c3cc(C)c(OC[C@@H](O)CNC(=O)CO)c(CC)c3)no2)cc(C(C)C)c1 [Example 71, N—{(S)-3-[2-ethyl-4-(5-{3-isopropyl-5-[(methyl-propyl-amino)-methyl]-phenyl}-[1,2,4]oxadiazol-3-yl)-6-methyl-phenoxy]-2-hydroxy-propyl}-2-hydroxy-acetamide] | 2.1
13 | CCCCN(C)Cc1cc(-c2nc(-c3cc(C)c(OC[C@@H](O)CNC(=O)CO)c(CC)c3)no2)cc(C(C)C)c1 [Example 72, N—{(S)-3-[4-(5-{3-[(butyl-methyl-amino)-methyl]-5-isopropyl-phenyl}-[1,2,4]oxadiazol-3-yl)-2-ethyl-6-methyl-phenoxy]-2-hydroxy-propyl}-2-hydroxy-acetamide] | 2.3
14 | CCc1cc(-c2noc(-c3cc(CN(C)CC(C)C)cc(C(C)C)c3)n2)cc(C)c1OC[C@@H](O)CNC(=O)CO [Example 73, N—{(S)-3-[2-ethyl-4-(5-{3-[(isobutyl-methyl-amino)-methyl]-5-isopropyl-phenyl}-[1,2,4]oxadiazol-3-yl)-6-methyl-phenoxy]-2-hydroxy-propyl}-2-hydroxy-acetamide] | 2
15 | CCc1cc(-c2noc(-c3cc(CN4CCCC4)cc(C(C)C)c3)n2)cc(C)c1OC[C@@H](O)CNC(=O)CO [Example 75, N—((S)-3-{2-ethyl-4-[5-(3-isopropyl-5-pyrrolidin-1-ylmethyl-phenyl)-[1,2,4]oxadiazol-3-yl]-6-methyl-phenoxy}-2-hydroxy-propyl)-2-hydroxy-acetamide] | 7.2
16 | CCc1ccc(-c2nc(-c3cc(C)c(OC[C@@H](O)CNC(=O)CO)c(CC)c3)no2)cc1CN(C)C [Example 89] | 22
17 | CCc1cc(-c2nc(-c3cc(C)c(OC[C@@H](O)CNC(=O)CO)c(CC)c3)no2)ccc1CN(C)CC [Example 100, N—{(S)-3-[2-ethyl-4-(5-{3-ethyl-4-[(ethyl-methyl-amino)-methyl]-phenyl}-[1,2,4]oxadiazol-3-yl)-6-methyl-phenoxy]-2-hydroxy-propyl}-2-hydroxy-acetamide] | 1.6
18 | CCc1cc(-c2nc(-c3cc(C)c(OC[C@@H](O)CNC(=O)CO)c(CC)c3)no2)ccc1CN1CCCC1 [Example 105, N—((S)-3-{2-ethyl-4-[5-(3-ethyl-4-pyrrolidin-1-ylmethyl-phenyl)-[1,2,4]oxadiazol-3-yl]-6-methyl-phenoxy}-2-hydroxy-propyl)-2-hydroxy-acetamide] | 8
19 | CCN(C)Cc1cc(C)cc(-c2nc(-c3cc(C)c(OC[C@@H](O)CO)c(Cl)c3)no2)c1 [Example 144, (S)-3-[2-chloro-4-(5-{3-[(ethyl-methyl-amino)-methyl]-5-methyl-phenyl}-[1,2,4]oxadiazol-3-yl)-6-methyl-phenoxy]-propane-1,2-diol] | 2
20 | CCN(C)Cc1cc(C)cc(-c2nc(-c3cc(C)c(OC[C@@H](O)CNC(=O)CO)c(C)c3)no2)c1 [Example 147, N—{(S)-3-[4-(5-{3-[(ethyl-methyl-amino)-methyl]-5-methyl-phenyl}-[1,2,4]oxadiazol-3-yl)-2,6-dimethyl-phenoxy]-2-hydroxy-propyl}-2-hydroxy-acetamide] | 2
21 | CCN(C)Cc1cc(C)cc(-c2nc(-c3cc(C)c(OC[C@@H](O)CNC(=O)CO)c(Cl)c3)no2)c1 [Example 148, N—{(S)-3-[2-chloro-4-(5-{3-[(ethyl-methyl-amino)-methyl]-5-methyl-phenyl}-[1,2,4]oxadiazol-3-yl)-6-methyl-phenoxy]-2-hydroxy-propyl}-2-hydroxy-acetamide] | 1.3
22 | N-(3-{4-[5-(4-dimethylaminomethyl-3-methyl-phenyl)-[1,2,4]oxadiazol-3-yl]-2,6-dimethyl-phenoxy}-2-hydroxy-propyl)-2-hydroxy-acetamide [Example 127] | 8.5

test system: circulating lymphocytes; assay: Assessment of in vivo efficacy: circulating lymphocytes after oral administration; parameters: species or system normotensive male Wistar rats; conditions: 3 h after oral administration of 10 mg/kg, male Wistar rats, compared to vehicle-treated group
Procedure: The efficacy of the compounds of formula (I) is assessed by measuring the circulating lymphocytes after oral administration of 3 to 30 mg/kg of a compound of formula (I) to normotensive male Wistar rats. The animals are housed in climate-controlled conditions with a 12 h-light/dark cycle, and have free access to normal rat chow and drinking water.
Blood is collected before and 3, 6 and 24 h after drug administration. Full blood is subjected to hematology using Advia Hematology system (Bayer Diagnostics, Zurich, Switzerland).
All data are presented as mean±SEM. Statistical analyses are performed by analysis of variance (ANOVA) using Statistica (StatSoft) and the Student-Newman-Keuls procedure for multiple comparisons. The null hypothesis is rejected when p<0.05.

Row | Compound | Lymphocyte counts [%]
23 | CCc1cc(CN(C)CC(C)C)cc(-c2nc(-c3cc(C)c(OC[C@@H](O)CNC(=O)CO)c(CC)c3)no2)c1 [Example 53, N—{(S)-3-[2-ethyl-4-(5-{3-ethyl-5-[(isobutyl-methyl-amino)-methyl]-phenyl}-[1,2,4]oxadiazol-3-yl)-6-methyl-phenoxy]-2-hydroxy-propyl}-2-hydroxy-acetamide] | −61.0
